# Reference: patent publication US20250197387A1, “BCL-XL DEGRADERS AND USES THEREOF” (Kymera Therapeutics, Inc., priority 2021, published 2025)
# Where two headings read alike, the source gives them in different places.
# Assays:
# MOLT-4 cells = test: CTG (CellTiter-Glo) cell viability assay, MOLT-4; format: cell-based; conditions: Homo sapiens, 3 day incubation, read-out: CTG Cell Viability Assay - MOLT-4 3 day: Average external-IC50
# Method: Compound-mediated viability effect on MOLT-4 and Caki-2 was quantitatively determined using the CellTiter-Glo® Luminescent Cell Viability Assay kit from Promega (Catalog number G7570) following manufacturer's recommended procedures. Briefly, MOLT-4 and Caki-2 cells were seeded into 384 well plates (Grenier Bio-One, Catalog number 781080) with a density of 10,000 cells per well. Compounds were then added to the assay plate with final top concentration of 10 μM and 1:3 dilution series with total of 9 doses. The final DMSO concentration is normalized to 0.2%. The assay plates were incubated at 37° C., for 3 days under 5% CO2. Then the assay plate was equilibrated at room temperature for 10 minutes. To determine cell viability, 30 uL CellTiter Glo reagent was added to each well and the assay plate was centrifuged at 1000 rpm for 30 second, incubated at room temperature for 10 min, and analyzed by detecting the luminescence using a multimode plate reader (EnVision 2105, PerkinElmer). The data was then analyzed by software Prism 7.0 from GraphPad and the dose response curves are fit using a three-parameter logistic equation to calculate IC50.
# The letter codes for MOLT-4 IC50 include: A (<0.1 μM); B (0.1-1.0 μM); C (>1.0-3.0 μM); and D (>3.0 μM). The letter codes for Caki-2 IC50 include: A (<0.1 μM); B (0.1-1.0 μM); C (>1.0-10.0 μM); and D (>10.0 μM).
# BCL-XL = target: T1, BCL-XL (Homo sapiens, UniProt Q07817); test: Bcl-xL ELISA degradation in MOLT-4 cells, 6 h; format: cell-based; conditions: for DC50: read-out: Bcl-xL ELISA in MOLT-4 degradation 6 h: Mean external-Abs DC50
# T1 construct: endogenous in cells; host or cells: MOLT-4
# T1 sequence (Q07817 whole entry): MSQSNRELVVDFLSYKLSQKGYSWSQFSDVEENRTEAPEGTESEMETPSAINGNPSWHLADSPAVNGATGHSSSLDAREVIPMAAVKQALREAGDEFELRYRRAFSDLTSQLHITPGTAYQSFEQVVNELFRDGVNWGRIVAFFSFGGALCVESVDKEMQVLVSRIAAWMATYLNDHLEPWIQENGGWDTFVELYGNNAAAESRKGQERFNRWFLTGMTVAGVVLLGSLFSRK
# Method: The letter codes for BCL-XL DC50 include: A (<0.01 μM); B (0.01-0.1 μM); C (>[…]); D (>0.5-1.0 μM); and E (>1.0 μM). The letter codes for Dmax % include A (>75%); B (50 to 75%); C (<50%).
Structure (SMILES),"IC50 (MOLT-4 cells; MOLT-4, 72 h) [nM]",Dmax (BCL-XL) [%],DC50 (BCL-XL) [nM],IC50 (MOLT-4 cells; 72 h) [nM]
Cc1ncsc1-c1ccc([C@H](C)NC(=O)[C@@H]2C[C@@H](O)CN2C(=O)[C@@H](NC(=O)Cc2ccc(S(=O)(=O)NC(=O)c3nc(N4CCc5cccc(C(=O)Nc6nc7ccccc7s6)c5C4)ccc3-c3cnn(CC4CCCCC4)c3C)cc2)C(C)(C)C)cc1 [I-287],100 to 1000,> 75,10 to 100,–
Cc1ncsc1-c1ccc([C@H](CC(=O)N(C)CCCCCC(=O)N2CCN(CC[C@H](CSc3ccccc3)Nc3ccc(S(=O)(=O)NC(=O)c4ccc(N5CCN(CC6=C(c7ccc(Cl)cc7)CCC(C)(C)C6)CC5)cc4)cc3S(=O)(=O)C(F)(F)F)CC2)NC(=O)[C@@H]2C[C@@H](O)CN2C(=O)[C@@H](NC(=O)C2(F)CC2)C(C)(C)C)cc1 [I-147],1000 to 3000,–,–,–
Cc1ncsc1-c1ccc(CNC(=O)[C@@H]2C[C@@H](O)CN2C(=O)[C@@H](NC(=O)C2(F)CC2)C(C)(C)C)c(OCCCC(=O)N(C)CC[C@H](CSc2ccccc2)Nc2ccc(S(=O)(=O)NC(=O)c3ccc(N4CCN(CC5=C(c6ccc(Cl)cc6)CCC(C)(C)C5)CC4)cc3)cc2S(=O)(=O)C(F)(F)F)c1 [I-146],100 to 1000,–,–,–
Cc1ncsc1-c1ccc([C@H](C)NC(=O)[C@@H]2C[C@@H](O)CN2C(=O)[C@@H](NC(=O)C2(F)CC2)C(C)(C)C)c(OCCN2CCN(CC[C@H](CSc3ccccc3)Nc3ccc(S(=O)(=O)NC(=O)c4ccc(N5CCN(CC6=C(c7ccc(Cl)cc7)CCC(C)(C)C6)CC5)cc4)cc3S(=O)(=O)C(F)(F)F)CC2)c1 [I-154],1000 to 3000,–,–,–
Cc1ncsc1-c1ccc([C@H](C)NC(=O)[C@@H]2C[C@@H](O)CN2C(=O)[C@@H](NC(=O)CCCCCCCOc2nc(N3CCc4cccc(C(=O)Nc5nc6ccccc6s5)c4C3)ccc2-c2cnn(CC3CCCCC3)c2C)C(C)(C)C)cc1 [I-218],> 3000,< 50,–,–
Cc1ncsc1-c1ccc([C@H](C)NC(=O)[C@@H]2C[C@@H](O)CN2C(=O)[C@@H](NC(=O)CCCC(=O)N(C)CCCC2(Cn3ncc(-c4ccc(N5CCc6cccc(C(=O)Nc7nc8ccccc8s7)c6C5)nc4C(=O)O)c3C)CCCCC2)C(C)(C)C)cc1 [I-150],100 to 1000,–,–,–
Cc1ncsc1-c1ccc([C@H](C)NC(=O)[C@@H]2C[C@@H](O)CN2C(=O)[C@@H](c2cc(OC3CCN([C@H]4CC[C@H](NC(=O)c5nc(N6CCc7cccc(C(=O)Nc8nc9ccccc9s8)c7C6)ccc5-c5cnn(CC6CCCCC6)c5C)CC4)CC3)no2)C(C)C)cc1 [I-313],1000 to 3000,< 50,> 1000,–
Cc1ncsc1-c1ccc(CNC(=O)[C@@H]2C[C@@H](O)CN2C(=O)[C@@H](NC(=O)C2(F)CC2)C(C)(C)C)c(CCCN2CCN(CC[C@H](CSc3ccccc3)Nc3ccc(S(=O)(=O)NC(=O)c4ccc(N5CCN(CC6=C(c7ccc(Cl)cc7)CCC(C)(C)C6)CC5)cc4)cc3S(=O)(=O)C(F)(F)F)CC2)c1 [I-211],100 to 1000,< 50,> 1000,–
Cc1ncsc1-c1ccc([C@H](C)NC(=O)[C@@H]2C[C@@H](O)CN2C(=O)[C@@H](NC(=O)CCCCCCCCC(=O)N(C)CC#Cc2ccc(OCCCc3ccc(N4CCc5cccc(C(=O)Nc6nc7ccccc7s6)c5C4)nc3C(=O)O)c(F)c2)C(C)(C)C)cc1 [I-148],< 100,–,–,–
Cc1ncsc1-c1ccc([C@@H](CC(=O)N(C)CCCCCC(=O)N2CCN(CC[C@H](CSc3ccccc3)Nc3ccc(S(=O)(=O)NC(=O)c4ccc(N5CCN(CC6=C(c7ccc(Cl)cc7)CCC(C)(C)C6)CC5)cc4)cc3S(=O)(=O)C(F)(F)F)CC2)NC(=O)[C@@H]2C[C@@H](O)CN2C(=O)[C@@H](NC(=O)C2(F)CC2)C(C)(C)C)cc1 [I-159],100 to 1000,–,–,–
Cc1ncsc1-c1ccc([C@H](C)NC(=O)[C@@H]2C[C@@H](O)CN2C(=O)[C@@H](NC(=O)C2CCN(c3ccc(S(=O)(=O)NC(=O)c4nc(N5CCc6cccc(C(=O)Nc7nc8ccccc8s7)c6C5)ccc4-c4cccc(OC(C)C)c4C)cc3)CC2)C(C)(C)C)cc1 [I-305],1000 to 3000,< 50,> 1000,–
Cc1ncsc1-c1ccc(CNC(=O)[C@@H]2C[C@H](O)CN2C(=O)[C@@H](NC(=O)C2(F)CC2)C(C)(C)C)c(OCCCCCS(=O)(=O)NC(=O)c2nc(N3CCc4cccc(C(=O)Nc5nc6ccccc6s5)c4C3)ccc2-c2cnn(CC34CC5CC(CC(C5)C3)C4)c2C)c1 [I-290],100 to 1000,50 to 75,100 to 500,–
Cc1ncsc1-c1ccc(CNC(=O)[C@@H]2C[C@@H](O)CN2C(=O)[C@@H](NC(=O)C2(F)CC2)C(C)(C)C)c(OCCN2CCN(CC[C@H](CSc3ccccc3)Nc3ccc(S(=O)(=O)NC(=O)c4csc(N5CCc6cccc(C(=O)Nc7nc8ccccc8s7)c6C5)n4)cc3S(=O)(=O)C(F)(F)F)CC2)c1 [I-167],100 to 1000,–,–,–
Cc1ncsc1-c1ccc(CNC(=O)[C@@H]2C[C@@H](O)CN2C(=O)[C@@H](NC(=O)C2(F)CC2)C(C)(C)C)c(OC2CCN(CCNC(=O)c3nc(N4CCc5cccc(C(=O)Nc6nc7ccccc7s6)c5C4)ccc3-c3cnn(CC4CCCCC4)c3C)CC2)c1 [I-215],100 to 1000,50 to 75,100 to 500,–
Cc1ncsc1-c1ccc([C@H](C)NC(=O)[C@@H]2C[C@@H](O)CN2C(=O)C(c2cc(N3CC4(CCN(CCNC(=O)c5nc(N6CCc7cccc(C(=O)Nc8nc9ccccc9s8)c7C6)ccc5-c5cnn(CC6CCCCC6)c5C)CC4)C3)no2)C(C)C)cc1 (some centres unmarked) [I-165],100 to 1000,–,–,–
Cc1ncsc1-c1ccc([C@H](C)NC(=O)[C@@H]2C[C@@H](O)CN2C(=O)[C@@H](NC(=O)N2CC(CN3CCC(CNC(=O)c4nc(N5CCc6cccc(C(=O)Nc7nc8ccccc8s7)c6C5)ccc4-c4cnn(CC5CCCCC5)c4C)CC3)C2)C(C)(C)C)cc1 [I-153],1000 to 3000,–,–,–
Cc1ncsc1-c1ccc([C@H](C)NC(=O)[C@@H]2C[C@@H](O)CN2C(=O)[C@@H](c2cc(N3CCN(c4ccc(S(=O)(=O)NC(=O)c5nc(N6CCc7cccc(C(=O)Nc8nc9ccccc9s8)c7C6)ccc5-c5cnn(CC6CCCCC6)c5C)cc4)CC3)no2)C(C)C)cc1 [I-214],100 to 1000,> 75,10 to 100,–
Cc1ncsc1-c1ccc(CNC(=O)[C@@H]2C[C@@H](O)CN2C(=O)[C@@H](NC(=O)C2(F)CC2)C(C)(C)C)c(OCC(=O)N(C)CC[C@H](CSc2ccccc2)Nc2ccc(S(=O)(=O)NC(=O)c3ccc(N4CCN(CC5=C(c6ccc(Cl)cc6)CCC(C)(C)C5)CC4)cc3)cc2S(=O)(=O)C(F)(F)F)c1 [I-161],> 3000,–,–,–
Cc1ncsc1-c1ccc([C@H](C)NC(=O)[C@@H]2C[C@@H](O)CN2C(=O)[C@H](c2cc(OCC3CCN(CCNC(=O)c4nc(N5CCc6cccc(C(=O)Nc7nc8ccccc8s7)c6C5)ccc4-c4cnn(CC5CCCCC5)c4C)CC3)no2)C(C)C)cc1 [I-288],100 to 1000,50 to 75,500 to 1000,–
Cc1ncsc1-c1ccc(CNC(=O)[C@@H]2C[C@@H](O)CN2C(=O)[C@@H](NC(=O)C2(F)CC2)C(C)(C)C)c(OCCc2ccc(S(=O)(=O)NC(=O)c3nc(N4CCc5cccc(C(=O)Nc6nc7ccccc7s6)c5C4)ccc3-c3cnn(CC4CCCCC4)c3C)cc2)c1 [I-219],100 to 1000,> 75,10 to 100,–
Cc1ncsc1-c1ccc([C@@H](C)NC(=O)[C@@H]2C[C@@H](O)CN2C(=O)[C@@H](NC(=O)CCCCCC(=O)N(C)CCCC2(Cn3ncc(-c4ccc(N5CCc6cccc(C(=O)Nc7nc8ccccc8s7)c6C5)nc4C(=O)O)c3C)CCCCC2)C(C)(C)C)cc1 [I-162],100 to 1000,–,–,–
Cc1ncsc1-c1ccc([C@H](C)NC(=O)[C@@H]2C[C@@H](O)CN2C(=O)[C@@H](NC(=O)CN(C)CCCS(=O)(=O)NC(=O)c2nc(N3CCc4cccc(C(=O)Nc5nc6ccccc6s5)c4C3)ccc2-c2cnn(CC3CCCCC3)c2C)C(C)(C)C)cc1 [I-220],–,> 75,< 10,< 100
Cc1ncsc1-c1ccc([C@H](C)NC(=O)[C@@H]2C[C@@H](O)CN2C(=O)[C@@H](NC(=O)CCCCCC(=O)N2CCN(CC[C@H](CSc3ccccc3)Nc3ccc(S(=O)(=O)NC(=O)c4cccc(N5CCc6cccc(C(=O)Nc7nc8ccccc8s7)c6C5)n4)cc3S(=O)(=O)C(F)(F)F)CC2)C(C)(C)C)cc1 [I-160],> 3000,–,–,–
Cc1ncsc1-c1ccc(CNC(=O)[C@@H]2C[C@@H](O)CN2C(=O)[C@@H](NC(=O)C2(F)CC2)C(C)(C)C)c(OCC(C)N2CCN(CC[C@H](CSc3ccccc3)Nc3ccc(S(=O)(=O)NC(=O)c4ccc(N5CCN(CC6=C(c7ccc(Cl)cc7)CCC(C)(C)C6)CC5)cc4)cc3S(=O)(=O)C(F)(F)F)CC2)c1 (some centres unmarked) [I-155],< 100,–,–,–
Cc1ncsc1-c1ccc([C@H](C)NC(=O)[C@@H]2C[C@@H](O)CN2C(=O)[C@@H](NC(=O)CN2CCN(CCNC(=O)c3nc(N4CCc5cccc(C(=O)Nc6nc7ccccc7s6)c5C4)ccc3-c3cnn(CC4CCCCC4)c3C)CC2)C(C)(C)C)cc1 [I-164],100 to 1000,–,–,–
Cc1ncsc1-c1ccc([C@H](C)NC(=O)[C@@H]2C[C@@H](O)CC2C(=O)[C@@H](NC(=O)CCCC(=O)N2CCN(C(=O)COC3(Cn4cc(-c5ccc(N6CCc7cccc(C(=O)Nc8nc9ccccc9s8)c7C6)nc5C(=O)O)cn4)CCCCC3)CC2)C(C)(C)C)cc1 (some centres unmarked) [I-149],> 3000,–,–,–
